This note sets out measurements from PMC10336670 (Saudi Pharmaceutical Journal : SPJ, 2023).

Sequence of urease enzyme (P07374 whole entry, looked up): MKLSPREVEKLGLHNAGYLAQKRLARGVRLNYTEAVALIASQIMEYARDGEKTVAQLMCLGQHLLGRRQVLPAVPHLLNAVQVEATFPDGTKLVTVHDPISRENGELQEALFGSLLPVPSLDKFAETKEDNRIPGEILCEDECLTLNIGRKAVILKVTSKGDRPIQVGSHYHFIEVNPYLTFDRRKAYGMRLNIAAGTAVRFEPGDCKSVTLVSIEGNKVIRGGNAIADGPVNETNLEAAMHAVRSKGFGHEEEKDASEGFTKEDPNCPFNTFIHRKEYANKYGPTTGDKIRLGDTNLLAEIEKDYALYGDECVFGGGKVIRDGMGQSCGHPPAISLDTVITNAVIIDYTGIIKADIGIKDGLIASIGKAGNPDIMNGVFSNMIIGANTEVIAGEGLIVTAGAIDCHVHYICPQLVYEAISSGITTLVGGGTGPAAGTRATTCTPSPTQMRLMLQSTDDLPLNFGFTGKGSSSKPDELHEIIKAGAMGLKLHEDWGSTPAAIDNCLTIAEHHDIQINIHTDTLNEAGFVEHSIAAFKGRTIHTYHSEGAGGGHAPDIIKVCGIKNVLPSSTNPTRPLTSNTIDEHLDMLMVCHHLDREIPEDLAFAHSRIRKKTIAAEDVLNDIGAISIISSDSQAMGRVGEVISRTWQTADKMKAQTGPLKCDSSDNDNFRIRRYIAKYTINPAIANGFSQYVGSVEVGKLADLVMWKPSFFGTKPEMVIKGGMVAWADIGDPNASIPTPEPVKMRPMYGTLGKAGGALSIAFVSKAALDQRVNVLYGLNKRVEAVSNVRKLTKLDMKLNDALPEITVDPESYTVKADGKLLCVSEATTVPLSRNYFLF

This assay has as its target urease enzyme (Canavalia ensiformis, UniProt P07374). Type of assay: biochemical.
Consider `CN(C)c1ccc(-c2coc(N/N=C\c3cnc4ccc(F)cn34)n2)cc1` [4 l, (Z)-4-(2-(2-((6-fluoroimidazo[1,2-a]pyridin-3-yl)methylene)hydrazineyl)oxazol-4-yl)-N,N-dimethylaniline], for which the “potency as urease inhibitor compared to the standard drug thiourea” value was “three-fold least potency”. As to `Fc1ccc2ncc(/C=N\Nc3nc(-c4ccc(-c5ccccc5)cc4)co3)n2c1` [4c, (Z)-4-([1,1'-biphenyl]-4-yl)-2-(2-((6-fluoroimidazo[1,2-a]pyridin-3-yl)methylene)hydrazineyl)oxazole], the “potency as urease inhibitor compared to the standard drug thiourea” value is “three-fold least potent”. Next, `Cc1ccc(-c2ccc(-c3coc(N/N=C\c4cnc5ccc(F)cn45)n3)cc2)cc1` [4f, (Z)-2-(2-((6-fluoroimidazo[1,2-a]pyridin-3-yl)methylene)hydrazineyl)-4-(4'-methyl-[1,1'-biphenyl]-4-yl)oxazole]: “three-fold least potent”. Next, `Cc1ccccc1-c1coc(N/N=C\c2cnc3ccc(F)cn23)n1` [4p, (Z)-2-(2-((6-fluoroimidazo[1,2-a]pyridin-3-yl)methylene)hydrazineyl)-4-(o-tolyl)oxazole]: “three-fold least potency”.
